# Measurements reported in ChEMBL document CHEMBL3046344, “Phytochemical based strategies for nematode control” (2002).
# Numbered stars: 1 amine (or outer) side, 2 acyl side, 3 side chain; on linkers, the order of the positions; unused ones are H or OH. Bridge positions count the residues as written; N and C are the ends. Square brackets hold non-standard residues; d marks the D form. Peptide text beside a SMILES is read from it. NMeW = CN[C@@H](Cc1c[nH]c2ccccc12)C(=O)O; X1 = CC(C)[C@@H](C(=O)[*:1])N(C)O[*:2]; NMeI = CC[C@H](C)[C@H](NC)C(=O)O; NMeV = CN[C@H](C(=O)O)C(C)C; Sar = CNCC(=O)O
# Columns and labels:
# Assay type in all cases: functional
# Meloidogyne incognita [1] = assay: Nematocidal activity against Meloidogyne incognita (root-knot nematode) assessed as mortality at 10 ug/ml
# Panagrellus redivivus [2] = assay: Nematocidal activity against Panagrellus redivivus assessed as mortality at 12.5 ug/ml
# Caenorhabditis elegans [3] = assay: Nematocidal activity against Caenorhabditis elegans assessed as mortality at 50 ug/ml
# Caenorhabditis elegans [4] = assay: Nematocidal activity against Caenorhabditis elegans assessed as mortality; conditions: for LC50 / minimal effective concentration: Caenorhabditis elegans; for minimal effective concentration: read-out: MEC
# Meloidogyne incognita [5] = assay: Nematocidal activity against Meloidogyne incognita (root-knot nematode) assessed as inhibition of penetration in tomato root at 25 ug/ml; set-up: scale not given: the % may be the effect or the level left
# Panagrellus redivivus [6] = assay: Nematocidal activity against Panagrellus redivivus; conditions: read-out: ED50 (the source's name)
# Meloidogyne incognita [7] = assay: Nematocidal activity against Meloidogyne incognita (root-knot nematode); conditions: read-out: LD50 (the source's name)
# Radopholus similis = assay: Nematocidal activity against Radopholus similis; conditions: read-out: LD50 (the source's name)
# Pratylenchus penetrans [8] = assay: Nematocidal activity against Pratylenchus penetrans; conditions: read-out: LD50 (the source's name)
# Heterodera schachtii = assay: Nematocidal activity against Heterodera schachtii; conditions: read-out: LD50 (the source's name)
# Ditylenchus dipsaci = assay: Nematocidal activity against Ditylenchus dipsaci assessed as motility; conditions: read-out: ED50 (the source's name)
# Pratylenchus penetrans [9] = assay: Nematocidal activity against Pratylenchus penetrans assessed as motility and viability
# Meloidogyne incognita [10] = assay: Nematocidal activity against Meloidogyne incognita (root-knot nematode) in tomato assessed as reduction of infection at 50 ug/ml; set-up: scale not given: the % may be the effect or the level left
# Meloidogyne incognita [11] = assay: Nematocidal activity against Meloidogyne incognita (root-knot nematode) assessed as motility and viability
# [12] = read-out: LD50 (the source's name)
compound,measurement,setting,value
CCCCCCCC/C=C\C(=O)O [2-UNDECYLENIC ACID],Activity,Meloidogyne incognita [1],70%
"CCCCC1OC(=O)C2=C1CCC=C2 (centres undefined) [3-N-BUTYL-4,5-DIHYDROPHTHALIDE]",Activity,Panagrellus redivivus [2],100%
same,Activity,Caenorhabditis elegans [3],100%
CC(=O)C#Cc1ccccc1 [4-PHENYL-3-BUTYN-2-ONE],LC50,Caenorhabditis elegans [4]; read-out: LC50,0.3 µg/mL
C=Cc1ccc(O)cc1 [4-VINYLPHENOL],minimal effective concentration,Caenorhabditis elegans [4],300 µg/mL
C=CCS[S+]([O-])CC=C (centres undefined) [ALLICIN],Activity,Meloidogyne incognita [5],50%
C[C@H]1CC[C@@H]2[C@@H](C)[C@H]3[C@H](C[C@H]4[C@@H]5CC=C6C[C@@H](O[C@@H]7O[C@H](CO)[C@H](O[C@@H]8O[C@@H](C)[C@H](O)[C@@H](O)[C@H]8O)[C@H](O)[C@@H]7O[C@@H]7O[C@@H](C)[C@@H](O)[C@@H](O)[C@H]7O)CC[C@]6(C)[C@H]5CC[C@]34C)N2C1 [ALPHA-CHACONINE],EC50,Panagrellus redivivus [6],85 µg/mL
Oc1ccccc1O [CATECHOL],Activity,Caenorhabditis elegans [4],100%
C=CCc1ccc(O)cc1 [CHAVICOL],minimal effective concentration,Caenorhabditis elegans [4],300 µg/mL
COc1c(-c2ccco2)coc(=O)c1C [CLADOBOTRIN],LC50,Meloidogyne incognita [7],100 µg/mL
COc1cc(CC(C)C(C)Cc2ccc(O)c(OC)c2)ccc1O (centres undefined) [DIHYDROGUAIARETIC ACID],LC50,Caenorhabditis elegans [4]; [12],10 µg/mL
C=CCc1ccc(O)c(O)c1 [HYDROXYCHAVICOL],minimal effective concentration,Caenorhabditis elegans [4],300 µg/mL
CCCCC/C=C\C/C=C\CCCCCCCC(=O)O [LINOLEIC ACID],LC50,Meloidogyne incognita [7],50 µg/mL
same,LC50,Caenorhabditis elegans [4]; [12],5 µg/mL
CC[C@H](C)[C@H]1C(=O)NCC(=O)N(C)[C@@H](Cc2c[nH]c3ccccc23)C(=O)N[C@@H](C(C)C)C(=O)N(C)[C@@H]([C@@H](C)CC)C(=O)N(C)[C@@H](C(C)C)C(=O)ON(C)[C@@H](C(C)C)C(=O)N(C)CC(=O)N(C)[C@@H](C(C)C)C(=O)N(C)[C@@H]([C@@H](C)CC)C(=O)N(C)CC(=O)N[C@@H](C(C)C)C(=O)N1C [OMPHALOTIN A] ([Sar][NMeV][NMeI][Sar]V[NMeI]G[NMeW]V[NMeI][NMeV]; linker N-C via X1),LC50,Meloidogyne incognita [7],0.75 µg/mL
same,LC50,Radopholus similis,> 75 µg/mL
same,LC50,Pratylenchus penetrans [8],25 µg/mL
same,LC50,Heterodera schachtii,30 µg/mL
COc1cc(O)cc(/C=C/c2ccccc2)c1 [PINOSYLVIN METHYL ETHER],LC50,Caenorhabditis elegans [4]; [12],4 µg/mL
C=C(C)[C@@H]1CCC2=C[C@@H](O)[C@H](O)[C@@H](C)C2C1 (some centres undefined) [RISHITIN],EC50,Ditylenchus dipsaci,100 µg/mL
C=C/C=C/C#CC1=CC=C(C#CC)SS1 [THIARUBRINE C],LC50,Pratylenchus penetrans [9],23.5 mg/mL
same,Activity,Meloidogyne incognita [10],95%
same,LC50,Meloidogyne incognita [11],12.4 mg/mL
C[C@H]1CC[C@]2(NC1)O[C@H]1C[C@H]3[C@@H]4CC[C@H]5C[C@@H](O[C@@H]6O[C@H](CO)[C@H](O[C@@H]7O[C@H](CO)[C@@H](O)[C@H](O[C@@H]8OC[C@@H](O)[C@H](O)[C@H]8O)[C@H]7O[C@@H]7O[C@H](CO)[C@@H](O)[C@H](O)[C@H]7O)[C@H](O)[C@H]6O)CC[C@]5(C)[C@H]4CC[C@]3(C)[C@H]1[C@@H]2C [TOMATINE],EC50,Panagrellus redivivus [6],50 µg/mL
